We go through eleven compounds from PubChem BioAssay (NCI).

What all share (experiment): NCI-60 cell line screen, 48 h
The subject of experiment [1] is IGROV1 ovarian.
The test system of experiment [2] is OVCAR-8 ovarian.
In experiment [3] the test system is SK-MEL-5 melanoma.
Experiment [4] deals with RPMI-8226 leukemia.
Experiment [5] deals with NCI-H522 lung.
For experiment [6], the system named is HOP-92 NSCLC.
The subject of experiment [7] is COLO 205 colon.
Experiment [8] relates to SNB-75 CNS.
Experiment [9] deals with MCF7 breast.

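Cells were grown in 96-well plates and exposed to each compound for 48 hours at five concentrations; endpoints were interpolated linearly between bracketing concentrations, or set to the highest concentration if not reached. GI50 is the concentration that inhibits growth by half. At the TGI there is no net growth.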

In the case of `O=C(c1ccc(NCN2C(=O)CCC2=O)cc1)c1ccc(NCN2C(=O)CCC2=O)cc1`, the TGI in [1] was more than 100 µM; in [2], more than 100 µM; in experiment [3] it was more than 100 µM; in [4], 43.9 µM; in [5] it was more than 100 µM; in [6], more than 100 µM. In addition, the TGI in experiment [7] was more than 100 µM.
On to `C=CCN=C1N=C(CC(=O)OCC)CS1`, for which the TGI in [1], in experiment [2], in experiment [8], in experiment [3], in experiment [5] and in experiment [6] was more than 100 µM each time. Further, the TGI in experiment [7] was more than 100 µM.
Consider `Cc1nc(NC(=S)Nc2ccc(F)cc2)sc1C(=O)NNC(=S)Nc1ccc(F)cc1`, for which the GI50 was 16 µM in [2]; 15.3 µM in experiment [8]; 3.5 µM in experiment [3]; 2.2 µM in [4]; 21.1 µM in experiment [5]; 1.49 µM in experiment [6]. Besides, the results for the GI50 in experiment [7] and in experiment [9] were 7.11 µM and 3.72 µM, respectively. Further, the TGI in experiment [2] was more than 100 µM; in experiment [8] it was 54.7 µM; in experiment [3], 15.2 µM; in experiment [4] it was 6.9 µM; in experiment [5], more than 100 µM; in experiment [6], 7.25 µM. For the same compound, the TGI is 20 µM in experiment [7] and 32.7 µM in experiment [9].
For `Fc1ccc(-c2nnc3sc(-c4cccc(Cl)c4)nn23)cc1Cl`, the GI50 in experiment [1] is more than 100 µM; in experiment [2], more than 100 µM; in experiment [8], 44.4 µM; in experiment [3], more than 100 µM; in [4], more than 100 µM; in experiment [5] it was more than 100 µM. Moreover, the GI50 in [6] is 33.7 µM; in experiment [7], more than 100 µM; in experiment [9], more than 100 µM. Moreover, the TGI in experiment [1], in experiment [2], in [8], in experiment [3], in [4] and in [5] was more than 100 µM throughout. Moreover, the TGI in [6] was 89.6 µM; in experiment [7], more than 100 µM; in experiment [9] it was more than 100 µM.
Consider `Cc1nc(Nc2ccc(F)c(Cl)c2)sc1C(=O)O`, for which the GI50 in experiment [1] was 1.63 µM; in experiment [2], 2.14 µM; in [8] it was 1.18 µM; in experiment [3] it was 1.48 µM; in experiment [4], 2.16 µM; in experiment [5] it was 1.1 µM. The values for the GI50 in [6], in experiment [7] and in [9] were 0.877 µM, 1.64 µM and 1.53 µM, respectively. Besides, the TGI in experiment [1] was 5.03 µM; in experiment [2] it was 4.82 µM; in experiment [8], 4.31 µM; in [3], 2.82 µM; in experiment [4] it was 6.22 µM; in [5], 3.17 µM. In addition, the TGI in experiment [6] worked out at 2.74 µM; in experiment [7] it was 3.2 µM; in experiment [9] it was 8.18 µM.
As to `Cl.Fc1c[c-]c(-c2ccccn2)c(F)c1.[Pt].c1ccc([PH+](CC[PH+](c2ccccc2)c2ccccc2)c2ccccc2)cc1`, the GI50 was 0.0234 µM in [8]; 0.13 µM in [3]; 0.0341 µM in experiment [4]; 0.121 µM in [6]; 0.0625 µM in [9]. Further, the TGI turned out to be 0.534 µM in [8]; 0.261 µM in experiment [3]; 0.249 µM in [4]; 0.422 µM in [6]; 1.1 µM in experiment [9].
Regarding `CCS(=O)(=O)c1ccc(OC)c(Nc2nccc(N(C)c3ccc4c(C)[nH]nc4c3)n2)c1`, the GI50 is 3.97 µM in [1]; 7.22 µM in experiment [2]; 2.94 µM in experiment [8]; 4 µM in experiment [3]; 8.35 µM in experiment [4]; 3.57 µM in experiment [5]. Also, the GI50 in experiment [6] is 0.622 µM; in [7], 11 µM; in experiment [9] it was 9.16 µM. In addition, the TGI in experiment [1] was 16.5 µM; in experiment [2], more than 22.2 µM; in experiment [8] it was 8.38 µM; in [3] it was 8.38 µM; in [4] it was more than 25 µM; in experiment [5] it was 10.5 µM. Besides, the TGI is 3.64 µM in [6], more than 25 µM in experiment [7] and more than 25 µM in experiment [9].
`CCOC(=O)NC(=O)c1cn(CCCOC(=O)CCCCCCCCC(=O)OCCCn2cc(C(=O)NC(=O)OCC)c(=O)[nH]c2=O)c(=O)[nH]c1=O`: the TGI in experiment [1] was 58.1 µM; in [2], more than 100 µM; in [8], more than 100 µM; in [3], more than 100 µM; in [4], 38.3 µM; in experiment [7] it was 64.4 µM.
Take `O=C(Nc1ccncc1)C(=O)c1cn(S(=O)(=O)c2ccccc2F)c2ccccc12`: the GI50 was 3.83 µM in experiment [1]; 2.7 µM in experiment [2]; 1.65 µM in experiment [8]; 0.693 µM in experiment [3]; 2.54 µM in experiment [4]; 0.371 µM in experiment [5]. Moreover, the figures for the GI50 in experiment [6], in experiment [7] and in [9] were 2.93 µM, 23.6 µM and 0.547 µM, respectively. Besides, the TGI in experiment [1] was more than 100 µM; in [2], 52.4 µM; in [8], 18 µM; in experiment [3], 16.2 µM; in [4] it was more than 32.7 µM; in experiment [5], 4.09 µM. Also, the TGI in experiment [6] was 60.2 µM; in experiment [7], more than 100 µM; in [9], 27.5 µM.
With `O=C(N/N=C/c1cc(Br)cc(Br)c1[O-])c1ccccc1O.O=C(N/N=C/c1cc(Br)cc(Br)c1[O-])c1ccccc1O.[Mn+2]`, the TGI in experiment [1] was found to be 22.7 µM; in experiment [2], 14.3 µM; in [8], 15.5 µM; in experiment [3] it was 19.2 µM; in [4] it was 14.8 µM; in experiment [6], 14.9 µM. In experiment [7], this compound displayed a TGI of 13.2 µM. Besides, in experiment [4], the GI50 was 1.03 µM.
Consider `N#CC1(c2nc3ccccc3o2)C(=O)C(=O)N(c2ccc(Cl)c(Cl)c2)C(=O)C1=O`, for which the TGI in [2], in experiment [8], in [3], in experiment [4], in experiment [5] and in [6] was more than 100 µM each time. The compound also yielded a TGI in [7] of more than 100 µM.
